Patent US20260159511A1, “SMALL MOLECULE STING ANTAGONISTS” (CURADEV PHARMA PVT. LTD., priority 2021, published 2026)
pIC50: −log10 of the molar value.

Test system: IRF pathway in THP1-Dual™ cells, THP-1 (HAQ)
Experiment: Reporter gene expression assay in THP-1 cells (THP1-Dual, IRF pathway Lucia luciferase reporter, 2′,3′-cGAMP stimulation)
Assay type: cell-based, human
Details: Homo sapiens; THP1-Dual cells preincubated with compound 10 minutes, stimulation with 5 μM 2′,3′-cGAMP for 20 hr, QUANTI-Luc readout of the supernatant; read-out: THP-1 (HAQ) Activity (IC50 value range)
Method: Reporter Gene Expression Assay in THP-1 Cells
THP1-Dual™ cells (Invivogen) were derived from the human THP-1 monocyte cell line by stable integration of two inducible reporter constructs. As a result, THP1-Dual™ cells allow the simultaneous study of the IRF pathway, by assessing the activity of a secreted luciferase (Lucia) and the NF-κB pathway, by monitoring the activity of secreted SEAP. 5×10^4 THP1-Dual™ cells were seeded in 384-well plates in growth medium and preincubated with novel compounds for 10 minutes followed by stimulation with 5 μM 2′,3′-cGAMP. After 20 hr of stimulation the supernatant was removed and the IRF pathway reporter protein was readily measured in the cell culture supernatant using QUANTI-Luc™ (Invivogen), a luciferase detection reagent on a Spectramax i3X luminometer.

Compound | pIC50
Cc1cc(CN2CCSc3ccc(NC(=O)Nc4c[nH]c5ccc(F)cc45)cc32)on1 [Example 110, 1-(5-fluoro-1H-indol-3-yl)-3-(4-((3-methylisoxazol-5-yl)methyl)-3,4-dihydro-2H-benzo[b][1,4]thiazin-6-yl)urea] | > 6.00
O=C(Nc1ccc2c(c1)OCCN2Cc1c(F)cccc1Cl)Nc1c[nH]c2ccccc12 [Example 76, 1-(4-(2-chloro-6-fluorobenzyl)-3,4-dihydro-2H-benzo[b][1,4]oxazin-7-yl)-3-(1H-indol-3-yl)urea] | > 6.00
O=C(Nc1ccc2c(c1)N(c1ccccc1)CCS2)Nc1c[nH]c2ccccc12 [Example 103, 1-(1H-indol-3-yl)-3-(4-phenyl-3,4-dihydro-2H-benzo[b][1,4]thiazin-6-yl)urea] | > 6.00
CS(=O)(=O)c1cccc(-c2ccc3[nH]cc(NC(=O)Nc4ccc5c(c4)N(Cc4ccccc4)C(=O)CS5)c3c2)c1 [Example 54, 1-(4-benzyl-3-oxo-3,4-dihydro-2H-benzo[b][1,4]thiazin-6-yl)-3-(5-(3-(methylsulfonyl)phenyl)-1H-indol-3-yl)urea] | 5.00 to 6.00
O=C(Nc1ccc2c(c1)N(Cc1ccccc1)C(=O)CS2)Nc1c[nH]c2ncc(Cl)cc12 [Example 5, 1-(4-benzyl-3-oxo-3,4-dihydro-2H-benzo[b][1,4]thiazin-6-yl)-3-(5-chloro-1H-pyrrolo[2,3-b]pyridin-3-yl)urea] | > 6.00
CC(C)n1cc(-c2ccc3[nH]cc(NC(=O)Nc4ccc5c(c4)N(Cc4ccccc4)C(=O)CS5)c3c2)cn1 [Example 59, 1-(4-benzyl-3-oxo-3,4-dihydro-2H-benzo[b][1,4]thiazin-6-yl)-3-(5-(1-isopropyl-1H-pyrazol-4-yl)-1H-indol-3-yl)urea] | > 6.00
O=C(Nc1ccc2c(c1)N(Cc1ccccc1)C(=O)CS2)Nc1c[nH]c2ccc(-c3cccnc3)cc12 [Example 55, 1-(4-benzyl-3-oxo-3,4-dihydro-2H-benzo[b][1,4]thiazin-6-yl)-3-(5-(pyridin-3-yl)-1H-indol-3-yl)urea] | > 6.00
O=C(Nc1ccc2c(c1)N(Cc1ccccc1)C(=O)CS2)Nc1c[nH]c2ccc(-c3ccc4c(c3)OCO4)cc12 [Example 65, 1-(5-(benzo[d][1,3]dioxol-5-yl)-1H-indol-3-yl)-3-(4-benzyl-3-oxo-3,4-dihydro-2H-benzo[b][1,4]thiazin-6-yl)urea] | > 6.00
O=C(Nc1ccc2c(c1)SCCN2c1ccccc1)Nc1c[nH]c2ccccc12 [Example 104, 1-(1H-indol-3-yl)-3-(4-phenyl-3,4-dihydro-2H-benzo[b][1,4]thiazin-7-yl)urea] | > 6.00
O=C(Nc1ccc2c(c1)N(Cc1ccccc1)C(=O)CS2)Nc1c[nH]c2ccc(-c3cncnc3)cc12 [Example 56, 1-(4-benzyl-3-oxo-3,4-dihydro-2H-benzo[b][1,4]thiazin-6-yl)-3-(5-(pyrimidin-5-yl)-1H-indol-3-yl)urea] | > 6.00
O=C(Nc1ccc2c(c1)N(c1ccccn1)CCS2)Nc1c[nH]c2ccccc12 [Example 105, 1-(1H-indol-3-yl)-3-(4-(pyridin-2-yl)-3,4-dihydro-2H-benzo[b][1,4]thiazin-6-yl)urea] | > 6.00
O=C(Nc1ccc2c(c1)N(c1cccc(F)n1)CCS2)Nc1c[nH]c2ccccc12 [Example 106, 1-(4-(6-fluoropyridin-2-yl)-3,4-dihydro-2H-benzo[b][1,4]thiazin-6-yl)-3-(1H-indol-3-yl)urea] | > 6.00
O=C(Nc1ccc2c(c1)N(Cc1ccccc1)C(=O)CO2)Nc1c[nH]c2ccccc12 [Example 4, 1-(4-benzyl-3-oxo-3,4-dihydro-2H-benzo[b][1,4]oxazin-6-yl)-3-(1H-indol-3-yl)urea] | > 6.00
O=C(Nc1ccc2c(c1)N(Cc1ccccc1)C(=O)CS2)Nc1c[nH]c2ccc(-c3cnco3)cc12 [Example 39, 1-(4-benzyl-3-oxo-3,4-dihydro-2H-benzo[b][1,4]thiazin-6-yl)-3-(5-(oxazol-5-yl)-1H-indol-3-yl)urea] | > 6.00
O=C(Nc1ccc2c(c1)N(Cc1ccccc1)C(=O)CS2)Nc1c[nH]c2ccc(-c3cnsc3)cc12 [Example 42, 1-(4-benzyl-3-oxo-3,4-dihydro-2H-benzo[b][1,4]thiazin-6-yl)-3-(5-(isothiazol-4-yl)-1H-indol-3-yl)urea] | > 6.00

Second part, the compound after the results:

pIC50 | Compound
> 6.00 | CC1CN(Cc2cc(F)cc(F)c2)c2cc(NC(=O)Nc3c[nH]c4ccccc34)ccc2S1 (centres unmarked) [Example 94, 1-(4-(3,5-difluorobenzyl)-2-methyl-3,4-dihydro-2H-benzo[b][1,4]thiazin-6-yl)-3-(1H-indol-3-yl)urea]
> 6.00 | O=C(Nc1ccc2c(c1)SCC(=O)N2Cc1c(F)cccc1Cl)Nc1c[nH]c2ccccc12 [Example 12, 1-(4-(2-chloro-6-fluorobenzyl)-3-oxo-3,4-dihydro-2H-benzo[b][1,4]thiazin-7-yl)-3-(1H-indol-3-yl)urea]
> 6.00 | O=C(Nc1ccc2c(c1)N(Cc1ccccc1)C(=O)CS2)Nc1c[nH]c2ccc(-c3cc(F)cc(F)c3)cc12 [Example 40, 1-(4-benzyl-3-oxo-3,4-dihydro-2H-benzo[b][1,4]thiazin-6-yl)-3-(5-(3,5-difluorophenyl)-1H-indol-3-yl)urea]
> 6.00 | CC1Sc2ccc(NC(=O)Nc3c[nH]c4ccccc34)cc2N(Cc2cc(F)cc(F)c2)C1=O (centres unmarked) [Example 33, 1-(4-(3,5-difluorobenzyl)-2-methyl-3-oxo-3,4-dihydro-2H-benzo[b][1,4]thiazin-6-yl)-3-(1H-indol-3-yl)urea]
> 6.00 | O=C(Nc1ccc2c(c1)N(Cc1c(F)cccc1Cl)C(=O)CS2)Nc1c[nH]c2ccccc12 [Example 11, 1-(4-(2-chloro-6-fluorobenzyl)-3-oxo-3,4-dihydro-2H-benzo[b][1,4]thiazin-6-yl)-3-(1H-indol-3-yl)urea]
5.00 to 6.00 | O=C(Nc1ccc2c(c1)N(Cc1cccnc1)C(=O)CS2)Nc1c[nH]c2ccccc12 [Example 24, 1-(1H-indol-3-yl)-3-(3-oxo-4-(pyridin-3-ylmethyl)-3,4-dihydro-2H-benzo[b][1,4]thiazin-6-yl)urea]
> 6.00 | O=C(Nc1ccc2c(c1)N(Cc1ccccc1)C(=O)CS2)Nc1c[nH]c2ccc(Cl)cc12 [Example 10, 1-(4-benzyl-3-oxo-3,4-dihydro-2H-benzo[b][1,4]thiazin-6-yl)-3-(5-chloro-1H-indol-3-yl)urea]
> 6.00 | O=C(Nc1ccc2c(c1)N(Cc1cc(F)cc(F)c1)CCS2)Nc1c[nH]c2ccccc12 [Example 92, 1-(4-(3,5-difluorobenzyl)-3,4-dihydro-2H-benzo[b][1,4]thiazin-6-yl)-3-(1H-indol-3-yl)urea]
5.00 to 6.00 | O=C(Nc1ccc2c(c1)N(Cc1ccccn1)C(=O)CS2)Nc1c[nH]c2ccccc12 [Example 19, 1-(1H-indol-3-yl)-3-(3-oxo-4-(pyridin-2-ylmethyl)-3,4-dihydro-2H-benzo[b][1,4]thiazin-6-yl)urea]
> 6.00 | C[C@H]1c2ccc(NC(=O)Nc3c[nH]c4ccccc34)cc2N(Cc2ccccc2)C(=O)N1C [Example 107, (S)-1-(1-Benzyl-3,4-dimethyl-2-oxo-1,2,3,4-tetrahydroquinazolin-7-yl)-3-(1H-indol-3-yl)urea]
> 6.00 | O=C(Nc1ccc2c(c1)SCCN2Cc1cc(F)cc(F)c1)Nc1c[nH]c2ccccc12 [Example 88, 1-(4-(3,5-difluorobenzyl)-3,4-dihydro-2H-benzo[b][1,4]thiazin-7-yl)-3-(1H-indol-3-yl)urea]
